Source: PMC12442448, “A third type of PETase from the marine Halopseudomonas lineage” (Protein Science : A Publication of the Protein Society, 2025)

Molecular target: T1, HaloPETase1 (Halopseudomonas pachastrellae, UniProt A0A1S8DDV9)
T1 construct: gene BXT89_15940; N-terminal signal peptide removed; N-10xHis-SUMO tag cut with SenP2 (tag kept in agar-plate screen); extra N-terminal Ser and C-terminal Ala from FX cloning; E. coli Shuffle T7
T1 sequence (A0A1S8DDV9 24-289): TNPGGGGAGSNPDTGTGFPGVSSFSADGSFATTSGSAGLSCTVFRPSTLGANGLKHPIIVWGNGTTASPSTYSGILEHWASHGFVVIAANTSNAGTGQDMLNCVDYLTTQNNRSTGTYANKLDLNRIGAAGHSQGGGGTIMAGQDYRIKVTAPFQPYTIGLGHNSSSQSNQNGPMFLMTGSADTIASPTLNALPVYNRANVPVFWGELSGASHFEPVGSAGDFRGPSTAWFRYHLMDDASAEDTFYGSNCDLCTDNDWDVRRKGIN
Assay: absorbance at […] nm, initial rate (residual activity assay)
Format: biochemical
Conditions: 1 mM substrate, 20 mM NaPi, pH 7.4, 150 mM NaCl, 1% DMSO; tag removed

CCCC(=O)Oc1ccc([N+](=O)[O-])cc1 [para‐nitrophenyl butyrate]
absorbance at 405 nm, initial rate (residual activity assay): the residual activity was measured by a para‐nitrophenyl butyrate (pNPB) assay
